Data on 35 compounds can be found in US11957687B2 (REGENERON PHARMACEUTICALS, INC., priority 2019, dated 2024).

The assay deals with HSD17B13 (Homo sapiens (Human), UniProt Q7Z5P4). Nature of the assay: HSD17B13 enzymatic inhibition assay (150 nM or 50 nM HSD17B13). It counts as biochemical. As to conditions: 50 nM HSD17B13; read-out: Inhibition of 50 nM of HSD17B13 IC50.
HSD17B13, sequence (Q7Z5P4 other isoform, or with tags, fused parts or gaps): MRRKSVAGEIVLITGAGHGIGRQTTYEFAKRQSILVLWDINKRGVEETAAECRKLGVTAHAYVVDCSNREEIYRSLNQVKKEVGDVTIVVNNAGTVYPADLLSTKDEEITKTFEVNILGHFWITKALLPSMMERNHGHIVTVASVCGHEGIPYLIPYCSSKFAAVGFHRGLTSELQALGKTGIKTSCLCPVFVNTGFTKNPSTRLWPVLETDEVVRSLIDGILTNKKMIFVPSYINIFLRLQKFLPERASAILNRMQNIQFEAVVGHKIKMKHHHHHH
As a reminder, the IC50 is the point on the concentration scale where inhibition reaches its midpoint. In the case of `O=C(NC1CCNc2ccccc21)c1ccc(C(F)(F)F)[nH]c1=O` (centres unmarked) [Compound 130, 2-oxo-N-(1,2,3,4-tetrahydroquinolin-4-yl)-6-(trifluoromethyl)-1,2-dihydropyridine-3-carboxamide], the IC50 was > 10000 nM. As for `O=C(NC1CCc2cc(Cl)ccc21)c1ccc(C(F)(F)F)[nH]c1=O` (centres unmarked) [Compound 131, N-(5-chloro-2,3-dihydro-1H-inden-1-yl)-2-oxo-6-(trifluoromethyl)-1,2-dihydropyridine-3-carboxamide], the figure is 1820 nM; as for `O=C(NC1CCCc2ccccc21)c1ccc(C(F)(F)F)[nH]c1=O` (centres unmarked) [Compound 132, 2-oxo-N-(1,2,3,4-tetrahydronaphthalen-1-yl)-6-(trifluoromethyl)-1,2-dihydropyridine-3-carboxamide], 1450 nM.

For `Cc1ccc2c(c1)CCC2NC(=O)c1ccc(C(F)(F)F)[nH]c1=O` (centres unmarked) [Compound 133, N-(5-methyl-2,3-dihydro-1H-inden-1-yl)-2-oxo-6-(trifluoromethyl)-1,2-dihydropyridine-3-carboxamide], the IC50 was 1450 nM. Regarding `O=C(NC1CCc2cc(O)ccc21)c1ccc(C(F)(F)F)[nH]c1=O` (centres unmarked) [Compound 135, N-(5-hydroxy-2,3-dihydro-1H-inden-1-yl)-2-oxo-6-(trifluoromethyl)-1,2-dihydropyridine-3-carboxamide], the IC50 amounted to 1910 nM.

On to `O=C(NC1CCc2c(O)cccc21)c1ccc(C(F)(F)F)[nH]c1=O` (centres unmarked) [Compound 136, N-(4-hydroxy-2,3-dihydro-1H-inden-1-yl)-2-oxo-6-(trifluoromethyl)-1,2-dihydropyridine-3-carboxamide], for which the IC50 is 1130 nM. As for `O=C(NC1c2ccccc2COc2ccccc21)c1ccc(C(F)(F)F)[nH]c1=O` (centres unmarked) [Compound 137, N-(6,11-dihydrodibenzo[b,e]oxepin-11-yl)-2-oxo-6-(trifluoromethyl)-1,2-dihydropyridine-3-carboxamide], the figure is 4190 nM. As for `C=Cc1ccc2c(c1)Oc1cccc(C=C)c1C2NC(=O)c1ccc(C(F)(F)F)[nH]c1=O` (centres unmarked) [Compound 139, N-(1,6-divinyl-9H-xanthen-9-yl)-2-oxo-6-(trifluoromethyl)-1,2-dihydropyridine-3-carboxamide], the figure is 510 nM; as for `CCc1ccc2c(c1)Oc1cccc(CC)c1C2NC(=O)c1ccc(C(F)(F)F)[nH]c1=O` (centres unmarked) [Compound 142, N-(1,6-diethyl-9H-xanthen-9-yl)-2-oxo-6-(trifluoromethyl)-1,2-dihydropyridine-3-carboxamide], 540 nM.

In the case of `CCc1ccc2c(c1)Oc1cc(CC)ccc1C2NC(=O)c1ccc(C(F)(F)F)[nH]c1=O` [Compound 143, N-(3,6-diethyl-9H-xanthen-9-yl)-2-oxo-6-(trifluoromethyl)-1,2-dihydropyridine-3-carboxamide], the IC50 came to 90 nM.

As to `O=C(NC1c2ccc(CC(F)(F)F)cc2Oc2cc(CC(F)(F)F)ccc21)c1ccc(C(F)(F)F)[nH]c1=O` [Compound 144, N-(3,6-bis(2,2,2-trifluoroethyl)-9H-xanthen-9-yl)-2-oxo-6-(trifluoromethyl)-1,2-dihydropyridine-3-carboxamide], the IC50 worked out at 310 nM. On to `O=C(NC1c2ccc(C3CC3)cc2Oc2cc(C3CC3)ccc21)c1ccc(C(F)(F)F)[nH]c1=O` [Compound 145, N-(3,6-dicyclopropyl-9H-xanthen-9-yl)-2-oxo-6-(trifluoromethyl)-1,2-dihydropyridine-3-carboxamide], for which the IC50 is 210 nM. As for `Cc1ccc2c(c1)Oc1cccc(C)c1C2NC(=O)c1ccc(C)[nH]c1=O` (centres unmarked) [Compound 147, N-(1,6-dimethyl-9H-xanthen-9-yl)-6-methyl-2-oxo-1,2-dihydropyridine-3-carboxamide], the figure is > 10000 nM; as for `Cc1ccc2c(c1)C(NC(=O)c1ccc(C(F)(F)F)[nH]c1=O)c1ccccc1O2` (centres unmarked) [Compound 148, N-(2-methyl-9H-xanthen-9-yl)-2-oxo-6-(trifluoromethyl)-1,2-dihydropyridine-3-carboxamide], 670 nM; as for `Cc1ccc2c(c1)Oc1cc(C)ccc1C2NC(=O)c1ccc(C)[nH]c1=O` [Compound 149, N-(3,6-dimethyl-9H-xanthen-9-yl)-6-methyl-2-oxo-1,2-dihydropyridine-3-carboxamide], > 10000 nM. As for `O=C(NC1c2ccccc2Oc2ccc(F)cc21)c1ccc(C(F)(F)F)[nH]c1=O` (centres unmarked) [Compound 150, N-(2-fluoro-9H-xanthen-9-yl)-2-oxo-6-(trifluoromethyl)-1,2-dihydropyridine-3-carboxamide], the figure is 400 nM; as for `O=C(NC1c2ccccc2Oc2cc(C3CCC3)ccc21)c1ccc(C(F)(F)F)[nH]c1=O` (centres unmarked) [Compound 151, N-(3-cyclobutyl-9H-xanthen-9-yl)-2-oxo-6-(trifluoromethyl)-1,2-dihydropyridine-3-carboxamide], 290 nM; as for `O=C(NC1c2ccccc2Oc2c(Cl)cccc21)c1ccc(C(F)(F)F)[nH]c1=O` (centres unmarked) [Compound 152, N-(4-chloro-9H-xanthen-9-yl)-2-oxo-6-(trifluoromethyl)-1,2-dihydropyridine-3-carboxamide], 1030 nM.

Turning to `O=C(NC1c2cc(Cl)ccc2Oc2ccc(Cl)cc21)c1ccc(C(F)(F)F)[nH]c1=O` [Compound 153, N-(2,7-dichloro-9H-xanthen-9-yl)-2-oxo-6-(trifluoromethyl)-1,2-dihydropyridine-3-carboxamide], the IC50 came to 1790 nM. As for `N#Cc1ccc2c(c1)C(NC(=O)c1ccc(C(F)(F)F)[nH]c1=O)c1ccccc1O2` (centres unmarked) [Compound 154, N-(2-cyano-9H-xanthen-9-yl)-2-oxo-6-(trifluoromethyl)-1,2-dihydropyridine-3-carboxamide], the figure is 650 nM; as for `C=Cc1ccc2c(c1)C(NC(=O)c1ccc(C(F)(F)F)[nH]c1=O)c1ccccc1O2` (centres unmarked) [Compound 155, 2-oxo-6-(trifluoromethyl)-N-(2-vinyl-9H-xanthen-9-yl)-1,2-dihydropyridine-3-carboxamide], 460 nM; as for `O=C(NC1c2ccccc2Oc2cccc(F)c21)c1ccc(C(F)(F)F)[nH]c1=O` (centres unmarked) [Compound 156, N-(1-fluoro-9H-xanthen-9-yl)-2-oxo-6-(trifluoromethyl)-1,2-dihydropyridine-3-carboxamide], 260 nM. In the case of `Cc1cccc2c1C(NC(=O)c1ccc(C(F)(F)F)[nH]c1=O)c1ccccc1O2` (centres unmarked) [Compound 157, N-(1-methyl-9H-xanthen-9-yl)-2-oxo-6-(trifluoromethyl)-1,2-dihydropyridine-3-carboxamide] it was 850 nM; in that of `Cc1ccc2c(c1)C(NC(=O)c1ccc(C(F)(F)F)[nH]c1=O)c1cc(C)ccc1O2` [Compound 158, N-(2,7-dimethyl-9H-xanthen-9-yl)-2-oxo-6-(trifluoromethyl)-1,2-dihydropyridine-3-carboxamide], 360 nM; in that of `O=C(NC1c2ccccc2Oc2cccc(Cl)c21)c1ccc(C(F)(F)F)[nH]c1=O` (centres unmarked) [Compound 159, N-(1-chloro-9H-xanthen-9-yl)-2-oxo-6-(trifluoromethyl)-1,2-dihydropyridine-3-carboxamide], 600 nM. In the case of `CCc1ccc2c(c1)C(NC(=O)c1ccc(C(F)(F)F)[nH]c1=O)c1ccccc1O2` (centres unmarked) [Compound 160, N-(2-ethyl-9H-xanthen-9-yl)-2-oxo-6-(trifluoromethyl)-1,2-dihydropyridine-3-carboxamide] it was 180 nM; in that of `CCc1ccc2c(c1)Oc1ccccc1C2NC(=O)c1ccc(C(F)(F)F)[nH]c1=O` (centres unmarked) [Compound 162, N-(3-ethyl-9H-xanthen-9-yl)-2-oxo-6-(trifluoromethyl)-1,2-dihydropyridine-3-carboxamide], 80 nM. For `CCc1cccc2c1C(NC(=O)c1ccc(C(F)(F)F)[nH]c1=O)c1ccccc1O2` (centres unmarked) [Compound 163, N-(1-ethyl-9H-xanthen-9-yl)-2-oxo-6-(trifluoromethyl)-1,2-dihydropyridine-3-carboxamide], the IC50 was 840 nM. Take `Cc1ccc2c(c1)Oc1cccc(C)c1C2NC(=O)c1cc(C)c(C(F)(F)F)[nH]c1=O` (centres unmarked) [Compound 164, N-(1,6-dimethyl-9H-xanthen-9-yl)-5-methyl-2-oxo-6-(trifluoromethyl)-1,2-dihydropyridine-3-carboxamide]: the IC50 was 900 nM. As for `Cc1cc(C(=O)NC2c3ccc(Cl)cc3Oc3cc(Cl)ccc32)c(=O)[nH]c1C(F)(F)F` [Compound 165, N-(3,6-dichloro-9H-xanthen-9-yl)-5-methyl-2-oxo-6-(trifluoromethyl)-1,2-dihydropyridine-3-carboxamide], the figure is 110 nM; as for `Cc1ccc2c(c1)Oc1cc(C)ccc1C2NC(=O)c1cc(C)c(C(F)(F)F)[nH]c1=O` [Compound 166, N-(3,6-dimethyl-9H-xanthen-9-yl)-5-methyl-2-oxo-6-(trifluoromethyl)-1,2-dihydropyridine-3-carboxamide], 60 nM; as for `CCc1cc(C(=O)NC2c3ccc(C)cc3Oc3cccc(C)c32)c(=O)[nH]c1C(F)(F)F` (centres unmarked) [Compound 167, N-(1,6-dimethyl-9H-xanthen-9-yl)-5-ethyl-2-oxo-6-(trifluoromethyl)-1,2-dihydropyridine-3-carboxamide], 820 nM. As for `C=Cc1cc(C(=O)NC2c3ccc(C)cc3Oc3cccc(C)c32)c(=O)[nH]c1C(F)(F)F` (centres unmarked) [Compound 168, N-(1,6-dimethyl-9H-xanthen-9-yl)-2-oxo-6-(trifluoromethyl)-5-vinyl-1,2-dihydropyridine-3-carboxamide], the figure is 330 nM; as for `CCc1cc(C(=O)NC2c3ccc(Cl)cc3Oc3cccc(Cl)c32)c(=O)[nH]c1C(F)(F)F` (centres unmarked) [Compound 169, N-(1,6-dichloro-9H-xanthen-9-yl)-5-ethyl-2-oxo-6-(trifluoromethyl)-1,2-dihydropyridine-3-carboxamide], 780 nM; as for `C=Cc1cc(C(=O)NC2c3ccc(Cl)cc3Oc3cccc(Cl)c32)c(=O)[nH]c1C(F)(F)F` (centres unmarked) [Compound 170, N-(1,6-dichloro-9H-xanthen-9-yl)-2-oxo-6-(trifluoromethyl)-5-vinyl-1,2-dihydropyridine-3-carboxamide], 350 nM.
